According to patent US20220177508A1, “C10-Cyclic Substituted 13-Membered Macrolides and Uses Thereof” (Zikani Therapeutics, Inc., priority 2018, published 2022):
In brackets after ≈: the same amount, converted by molar mass.

Assays:
Format in all cases: cell-based
A. baumannii MP-15 = experiment: Broth dilution MIC determination (CLSI), A. baumannii MP-15; conditions: Acinetobacter baumannii, MP15; strain MP-15, broth dilution; read-out: MIC A. baumanii MP-15
E. coli MP-4 = experiment: Broth dilution MIC determination (CLSI), E. coli MP-4; conditions: Escherichia coli, MP4; strain MP-4, broth dilution; read-out: MIC E. coli MP-4
S. aureus MP-12 = experiment: Broth dilution MIC determination (CLSI), S. aureus MP-12; conditions: Staphylococcus aureus, MP12; strain MP-12, broth dilution
P. aeruginosa MP-3 = experiment: Broth dilution MIC determination (CLSI), P. aeruginosa MP-3; conditions: Pseudomonas aeruginosa, MP3; strain MP-3, broth dilution
K. pneumoniae MP-546 = experiment: Broth dilution MIC determination (CLSI), K. pneumoniae MP-546; conditions: Klebsiella pneumoniae, MP546; strain MP-546, broth dilution

C=CCN1CC=C([C@H]2[C@@H](C)OC(=O)C(C)(C)C(=O)[C@H](C)[C@@H](O[C@@H]3O[C@H](C)C[C@H](N(C)C)[C@H]3O)[C@](C)(OC)C[C@@H](C)CN2C)CC1 [Compound 1, (2R,3S,6R,8R,9R,10R)-3-(1-Allyl-1,2,3,6-tetrahydropyridin-4-yl)-9-(((2S,3R,4S,6R)-4-(dimethylamino)-3-hydroxy-6-methyltetrahydro-2H-pyran-2-yl)oxy)-8-methoxy-2,4,6,8,10,12,12-heptamethyl-1-oxa-4-azacyclotridecane-11,13-dione]
MIC (A. baumannii MP-15): > 32 µg/mL | MIC (E. coli MP-4): > 32 µg/mL | MIC (S. aureus MP-12): > 32 µg/mL | MIC (P. aeruginosa MP-3): > 32 µg/mL | MIC (K. pneumoniae MP-546): > 32 µg/mL

CCC[N+]1(C)CC=C([C@H]2[C@@H](C)OC(=O)C(C)(C)C(=O)[C@H](C)[C@@H](O[C@@H]3O[C@H](C)C[C@H](N(C)C)[C@H]3O)[C@](C)(OC)C[C@@H](C)CN2C)CC1 (stereo partly drawn) [Compound 4, 4-((2R,3S,6R,8R,9R,10R)-9-(((2S,3R,4S,6R)-4-(dimethylamino)-3-hydroxy-6-methyltetrahydro-2H-pyran-2-yl)oxy)-8-methoxy-2,4,6,8,10,12,12-heptamethyl-11,13-dioxo-1-oxa-4-azacyclotridecan-3-yl)-1-methyl-1-propyl-1,2,3,6-tetrahydropyridin-1-ium]
MIC (A. baumannii MP-15): > 32 µg/mL | MIC (E. coli MP-4): > 32 µg/mL | MIC (S. aureus MP-12): > 32 µg/mL | MIC (P. aeruginosa MP-3): > 32 µg/mL | MIC (K. pneumoniae MP-546): > 32 µg/mL

CO[C@]1(C)C[C@@H](C)CN(C)[C@H](C2CC3CCC(C2)N3C(=O)CN(C)C)COC(=O)C(C)(C)C(=O)[C@H](C)[C@H]1O[C@@H]1O[C@H](C)C[C@H](N(C)C)[C@H]1O (stereo partly drawn) [Compound 6, (3R,6R,8R,9R,10R)-9-(((2S,3R,4S,6R)-4-(dimethylamino)-3-hydroxy-6-methyltetrahydro-2H-pyran-2-yl)oxy)-3-(8-(dimethylglycyl)-8-azabicyclo[3.2.1]octan-3-yl)-8-methoxy-4,6,8,10,12,12-hexamethyl-1-oxa-4-azacyclotridecane-11,13-dione]
MIC (A. baumannii MP-15): > 32 µg/mL | MIC (E. coli MP-4): 4 to 32 µg/mL (≈ 5.76 to 46 µM) | MIC (S. aureus MP-12): > 32 µg/mL | MIC (P. aeruginosa MP-3): > 32 µg/mL | MIC (K. pneumoniae MP-546): 4 to 32 µg/mL (≈ 5.76 to 46 µM)

CO[C@]1(C)C[C@@H](C)CN[C@H](C2CCN(C(C)C)CC2)COC(=O)C(C)(C)C(=O)[C@H](C)[C@H]1O[C@@H]1O[C@H](C)C[C@H](N(C)C)[C@H]1O [Compound 7, (3R,6R,8R,9R,10R)-9-(((2S,3R,4S,6R)-4-(Dimethylamino)-3-hydroxy-6-methyltetrahydro-2H-pyran-2-yl)oxy)-3-(1-isopropylpiperidin-4-yl)-8-methoxy-6,8,10,12,12-pentamethyl-1-oxa-4-azacyclotridecane-11,13-dione]
MIC (A. baumannii MP-15): > 32 µg/mL | MIC (E. coli MP-4): < 4 µg/mL | MIC (S. aureus MP-12): 4 to 32 µg/mL (≈ 6.54 to 52.3 µM) | MIC (P. aeruginosa MP-3): > 32 µg/mL | MIC (K. pneumoniae MP-546): < 4 µg/mL

CO[C@]1(C)C[C@@H](C)CN(C)[C@@H]([C@H]2CNC(=O)C2)COC(=O)C(C)(C)C(=O)[C@H](C)[C@H]1O[C@@H]1O[C@H](C)C[C@H](N(C)C)[C@H]1O [Compound 8, (3S,6R,8R,9R,10R)-9-(((2S,3R,4S,6R)-4-(dimethylamino)-3-hydroxy-6-methyltetrahydro-2H-pyran-2-yl)oxy)-8-methoxy-4,6,8,10,12,12-hexamethyl-3-((R)-5-oxopyrrolidin-3-yl)-1-oxa-4-azacyclotridecane-11,13-dione]
MIC (A. baumannii MP-15): > 32 µg/mL | MIC (E. coli MP-4): < 4 µg/mL | MIC (S. aureus MP-12): > 32 µg/mL | MIC (P. aeruginosa MP-3): > 32 µg/mL | MIC (K. pneumoniae MP-546): 4 to 32 µg/mL (≈ 6.85 to 54.8 µM)

CO[C@]1(C)C[C@@H](C)CN(C)[C@H](C2CCN(C(=O)CN3CCCC3)CC2)COC(=O)C(C)(C)C(=O)[C@H](C)[C@H]1O[C@@H]1O[C@H](C)C[C@H](N(C)C)[C@H]1O [Compound 9, (3R,6R,8R,9R,10R)-9-(((2S,3R,4S,6R)-4-(dimethylamino)-3-hydroxy-6-methyltetrahydro-2H-pyran-2-yl)oxy)-8-methoxy-4,6,8,10,12,12-hexamethyl-3-(1-(2-(pyrrolidin-1-yl)acetyl)piperidin-4-yl)-1-oxa-4-azacyclotridecane-11,13-dione]
MIC (A. baumannii MP-15): > 32 µg/mL | MIC (E. coli MP-4): 4 to 32 µg/mL (≈ 5.76 to 46 µM) | MIC (S. aureus MP-12): > 32 µg/mL | MIC (P. aeruginosa MP-3): > 32 µg/mL | MIC (K. pneumoniae MP-546): 4 to 32 µg/mL (≈ 5.76 to 46 µM)

CO[C@]1(C)C[C@@H](C)CN(C)[C@H](C2CN(C(=O)CN3Cc4ccccc4C3)C2)COC(=O)C(C)(C)C(=O)[C@H](C)[C@H]1O[C@@H]1O[C@H](C)C[C@H](N(C)C)[C@H]1O [Compound 10, (3R,6R,8R,9R,10R)-9-(((2S,3R,4S,6R)-4-(dimethylamino)-3-hydroxy-6-methyltetrahydro-2H-pyran-2-yl)oxy)-3-(1-(2-(isoindolin-2-yl)acetyl)azetidin-3-yl)-8-methoxy-4,6,8,10,12,12-hexamethyl-1-oxa-4-azacyclotridecane-11,13-dione]
MIC (A. baumannii MP-15): 4 to 32 µg/mL (≈ 5.59 to 44.8 µM) | MIC (E. coli MP-4): < 4 µg/mL | MIC (S. aureus MP-12): 4 to 32 µg/mL (≈ 5.59 to 44.8 µM) | MIC (P. aeruginosa MP-3): > 32 µg/mL | MIC (K. pneumoniae MP-546): 4 to 32 µg/mL (≈ 5.59 to 44.8 µM)

CO[C@]1(C)C[C@@H](C)CN(C)[C@H]([C@H]2CCN(C(C)C)C2)COC(=O)C(C)(C)C(=O)[C@H](C)[C@H]1O[C@@H]1O[C@H](C)C[C@H](N(C)C)[C@H]1O [Compound 11, (3R,6R,8R,9R,10R)-9-(((2S,3R,4S,6R)-4-(Dimethylamino)-3-hydroxy-6-methyltetrahydro-2H-pyran-2-yl)oxy)-3-((S)-1-isopropylpyrrolidin-3-yl)-8-methoxy-4,6,8,10,12,12-hexamethyl-1-oxa-4-azacyclotridecane-11,13-dione]
MIC (A. baumannii MP-15): > 32 µg/mL | MIC (E. coli MP-4): < 4 µg/mL | MIC (S. aureus MP-12): 4 to 32 µg/mL (≈ 6.54 to 52.3 µM) | MIC (P. aeruginosa MP-3): > 32 µg/mL | MIC (K. pneumoniae MP-546): < 4 µg/mL

CO[C@]1(C)C[C@@H](C)CN(C)[C@@H](C2CCN(CC(C)C)CC2)COC(=O)C(C)(C)C(=O)[C@H](C)[C@H]1O[C@@H]1O[C@H](C)C[C@H](N(C)C)[C@H]1O [Compound 12, (3S,6R,8R,9R,10R)-9-(((2S,3R,4S,6R)-4-(dimethylamino)-3-hydroxy-6-methyltetrahydro-2H-pyran-2-yl)oxy)-3-(1-isobutylpiperidin-4-yl)-8-methoxy-4,6,8,10,12,12-hexamethyl-1-oxa-4-azacyclotridecane-11,13-dione]
MIC (A. baumannii MP-15): > 32 µg/mL | MIC (E. coli MP-4): < 4 µg/mL | MIC (S. aureus MP-12): 4 to 32 µg/mL (≈ 6.25 to 50 µM) | MIC (P. aeruginosa MP-3): > 32 µg/mL | MIC (K. pneumoniae MP-546): < 4 µg/mL

CCC(=O)N1CCC([C@@H]2COC(=O)C(C)(C)C(=O)[C@H](C)[C@@H](O[C@@H]3O[C@H](C)C[C@H](N(C)C)[C@H]3O)[C@](C)(OC)C[C@@H](C)CN2C)CC1 [Compound 13, (3R,6R,8R,9R,10R)-9-(((2S,3R,4S,6R)-4-(dimethylamino)-3-hydroxy-6-methyltetrahydro-2H-pyran-2-yl)oxy)-8-methoxy-4,6,8,10,12,12-hexamethyl-3-(1-propionylpiperidin-4-yl)-1-oxa-4-azacyclotridecane-11,13-dione]
MIC (A. baumannii MP-15): > 32 µg/mL | MIC (E. coli MP-4): 4 to 32 µg/mL (≈ 6.25 to 50 µM) | MIC (S. aureus MP-12): 4 to 32 µg/mL (≈ 6.25 to 50 µM) | MIC (P. aeruginosa MP-3): > 32 µg/mL | MIC (K. pneumoniae MP-546): 4 to 32 µg/mL (≈ 6.25 to 50 µM)

CO[C@]1(C)C[C@@H](C)CN(C)[C@H](C2CN(C(=O)CN3CCC3)C2)COC(=O)C(C)(C)C(=O)[C@H](C)[C@H]1O[C@@H]1O[C@H](C)C[C@H](N(C)C)[C@H]1O [Compound 14]
MIC (A. baumannii MP-15): > 32 µg/mL | MIC (E. coli MP-4): < 4 µg/mL | MIC (S. aureus MP-12): > 32 µg/mL | MIC (P. aeruginosa MP-3): > 32 µg/mL | MIC (K. pneumoniae MP-546): > 32 µg/mL

CCN1C2CCC1CC([C@@H]1COC(=O)C(C)(C)C(=O)[C@H](C)[C@@H](O[C@@H]3O[C@H](C)C[C@H](N(C)C)[C@H]3O)[C@](C)(OC)C[C@@H](C)CN1C)C2 (stereo partly drawn) [Compound 15, (3R,6R,8R,9R,10R)-9-(((2S,3R,4S,6R)-4-(dimethylamino)-3-hydroxy-6-methyltetrahydro-2H-pyran-2-yl)oxy)-3-(8-ethyl-8-azabicyclo[3.2.1]octan-3-yl)-8-methoxy-4,6,8,10,12,12-hexamethyl-1-oxa-4-azacyclotridecane-11,13-dione]
MIC (A. baumannii MP-15): > 32 µg/mL | MIC (E. coli MP-4): < 4 µg/mL | MIC (S. aureus MP-12): 4 to 32 µg/mL (≈ 6.27 to 50.2 µM) | MIC (P. aeruginosa MP-3): > 32 µg/mL | MIC (K. pneumoniae MP-546): 4 to 32 µg/mL (≈ 6.27 to 50.2 µM)

CO[C@]1(C)C[C@@H](C)CN(C)[C@H](C2CN(CC3CCC3)C2)COC(=O)C(C)(C)C(=O)[C@H](C)[C@H]1O[C@@H]1O[C@H](C)C[C@H](N(C)C)[C@H]1O [Compound 17, (3R,6R,8R,9R,10R)-3-(1-(cyclobutylmethyl)azetidin-3-yl)-9-(((2S,3R,4S,6R)-4-(dimethylamino)-3-hydroxy-6-methyltetrahydro-2H-pyran-2-yl)oxy)-8-methoxy-4,6,8,10,12,12-hexamethyl-1-oxa-4-azacyclotridecane-11,13-dione]
MIC (A. baumannii MP-15): 4 to 32 µg/mL (≈ 6.41 to 51.3 µM) | MIC (E. coli MP-4): < 4 µg/mL | MIC (S. aureus MP-12): 4 to 32 µg/mL (≈ 6.41 to 51.3 µM) | MIC (P. aeruginosa MP-3): > 32 µg/mL | MIC (K. pneumoniae MP-546): < 4 µg/mL

CO[C@]1(C)C[C@@H](C)CN(C)[C@H](c2ccncc2)COC(=O)C(C)(C)C(=O)[C@H](C)[C@H]1O[C@@H]1O[C@H](C)C[C@H](N(C)C)[C@H]1O [Compound 19, (3R,6R,8R,9R,10R)-9-(((2S,3R,4S,6R)-4-(dimethylamino)-3-hydroxy-6-methyltetrahydro-2H-pyran-2-yl)oxy)-8-methoxy-4,6,8,10,12,12-hexamethyl-3-(pyridin-4-yl)-1-oxa-4-azacyclotridecane-11,13-dione]
MIC (A. baumannii MP-15): > 32 µg/mL | MIC (E. coli MP-4): > 32 µg/mL | MIC (S. aureus MP-12): > 32 µg/mL | MIC (P. aeruginosa MP-3): > 32 µg/mL | MIC (K. pneumoniae MP-546): > 32 µg/mL

CO[C@]1(C)C[C@@H](C)CN(C)[C@H](C2CN(CC(=O)NCc3ccccc3)C2)COC(=O)C(C)(C)C(=O)[C@H](C)[C@H]1O[C@@H]1O[C@H](C)C[C@H](N(C)C)[C@H]1O [Compound 20, N-benzyl-2-(3-((3R,6R,8R,9R,10R)-9-(((2S,3R,4S,6R)-4-(dimethylamino)-3-hydroxy-6-methyltetrahydro-2H-pyran-2-yl)oxy)-8-methoxy-4,6,8,10,12,12-hexamethyl-11,13-dioxo-1-oxa-4-azacyclotridecan-3-yl)azetidin-1-yl)acetamide]
MIC (A. baumannii MP-15): > 32 µg/mL | MIC (E. coli MP-4): < 4 µg/mL | MIC (S. aureus MP-12): 4 to 32 µg/mL (≈ 5.69 to 45.5 µM) | MIC (P. aeruginosa MP-3): > 32 µg/mL | MIC (K. pneumoniae MP-546): 4 to 32 µg/mL (≈ 5.69 to 45.5 µM)
